Measured values published in patent US20220242812A1, “SWELL1-LRRC8 COMPLEX MODULATORS” (Washington University, priority 2019, published 2022).

Experiments:
[1] = molecular target: T1, SWELL1 protein (Mus musculus, UniProt Q80WG5); assay: Glucolipotoxic stress (palmitate + glucose) SWELL1 protein in 3T3-F442A adipocytes; details: 10 μM 96 h, 1 mM palmitate + 25 mM glucose
[2] = molecular target: T2, R103E mutant SWELL1 (Homo sapiens, UniProt Q8IWT6, R103E); assay: ICl,SWELL inhibition in R103E mutant SWELL1 overexpressing HEK-293 cells; type: cell-based; details: R103E expressing HEK cells, 10 and 7 μM
T2 construct: expressed in transfected cells; host or cells: HEK-293

[3] = molecular target: T3, CYP 2D6 (Homo sapiens, UniProt P10635); assay: Cytochrome P450 inhibition assay, CYP 2D6; type: in vitro ADME; details: human liver microsomes
T3 construct: Human liver microsomes were diluted in Potassium phosphate buffer; tissue Charles River Laboratory (performed the study); host or cells: human liver microsomes

[4] = molecular target: hERG (Homo sapiens, UniProt Q12809); details: cited from earlier work
[5] = tested on: HFD-T2D mice, NAFLD; assay: Liver mass, triglycerides and NAFLD histology in HFD mice; type: in vivo; details: vs vehicle
Procedure: Gross liver weights were measured and identical sections from right medial lobe of liver were dissected for further examinations. Total triglyceride content was determined by homogenizing 10-50 mg of tissue in 1.5 ml of chloroform:methanol (2:1 v/v) and centrifuged at 12000 rpm for 10 mins at 4° C. An aliquot, 20 ul, was evaporated in a 1.5 ml microcentrifuge tube for 30 mins. Triglyceride content was determined by adding 100 μl of Infinity Triglyceride Reagent (Fisher Scientific) to the dried sample followed by 30 min incubation at RT. The samples were then transferred to a 96 well plate along with standards (0-2000 mg/di) and absorbance was measured at 540 nm and the final concentration was determined by normalizing to tissue weight. For histological examination, liver sections were fixed in 10% zinc formalin and paraffin embedded for sectioning. Hematoxylin and eosin (H&E) stained sections were then assessed for steatosis grade, lobular inflammation and hepatocyte ballooning for non-alcoholic fatty liver disease (NAFLD) scoring as described (Kleiner et al., 2005; Liang et al., 2014; Rauckhorst et al., 2017).
Nonalcoholic fatty liver disease (NAFLD), like T2D, is associated with insulin resistance. NASH is an advanced form of nonalcoholic liver disease defined by three histological features: hepatic steatosis, hepatic lobular inflammation, hepatocyte damage (ballooning) and can be present without or without fibrosis. NAFLD and T2D likely share at least some pathophysiologic mechanisms because more than one-third of patients (37%) with T2D have NASH and almost one-half of patients with NASH (44%) have T2D. […] This improved metabolic state can reduce ectopic lipid deposition and NAFLD that is associated with obesity and T2D.

[6] = molecular target: T1, SWELL1 protein; assay: SWELL1 protein expression in adipose tissue of treated T2D mice; type: in vivo; set-up: western blots detecting SWELL1 protein in visceral fat of C57BL/6 mice on high-fat diet; from tissue; host or cells: visceral / inguinal adipose tissue of C57BL/6 HFD and KKAy mice; details: 5 mg/kg i.p.
Procedure: (§1) All compounds were dissolved in Kolliphor® EL (Sigma, #C5135).
(SEQ ID NO: 13) (Pacific Antibodies).

[7] = tested on: non-T2D mice; assay: Metabolic phenotyping in non-T2D mice (KKAa control strain, lean chow-fed); type: in vivo
Procedure: as §1
(§2) Mice were fasted for 6 h prior to glucose tolerance tests (GTT). Baseline glucose levels at 0 min timepoint (fasting glucose, FG) were measured from blood sample collected from tail snipping using glucometer (Bayer Healthcare LLC). Either 1 g or 0.75 g D-Glucose/kg body weight were injected (i.p.) for lean or HFD mice, respectively and glucose levels were measured at 7, 15, 30, 60, 90 and 120 min timepoints after injection. For insulin tolerance tests (ITTs), the mice were fasted for 4 h. Similar to GTTs, the baseline blood glucose levels were measured at 0 min timepoint and 15, 30, 60, 90 and 120 min timepoints post-injection (i.p.) of insulin (HumulinR, 1 U/kg body weight for lean mice or 1.25 U/kg body weight for HFD mice). […] The collected plasma was then measured for insulin content by using Ultra-Sensitive Mouse Insulin ELISA Kit (Crystal Chem, #90080). All mice and treatment groups were assessed blindly while performing experiments.

[8] = tested on: polygenic T2D KKAy mice; assay: Metabolic phenotyping (fasting glucose, GTT, ITT) in polygenic T2D KKAy mice; type: in vivo; details: polygenic T2D KKAy model, 5 mg/kg i.p. 4 days
From the text: All C57BL/6 mice involved in study were purchased from Charles River Labs. Both KK.Cg-Ay/J (KKN) and KK.Cg-Aa/J (KKAa) mice involved in study were gender and age-matched mice obtained from Jackson Labs (Stock No: 002468) and bred up for experiments. The mice were fed ad libitum with either regular chow (RC) or high-fat diet (Research Diets, Inc., 60 kcal % fat) with free access to water and housed in a light-, temperature- and humidity-controlled room. For high-fat diet (HFD) studies, only male mice were used and were started on HFD regimen at the age of 6-9 weeks. For all experiments involving KKN and KKAa mice, both males and females were used at approximately 50/50 ratio. In all experiments involving mice, investigators were kept blinded both during the experiments and subsequent analysis.
as §1, §2

[9] = tested on: SWELL1, LRRC8b, LRRC8c, LRRC8d, LRRC8e mRNA; type: cell-based; details: 3T3-F442A preadipocytes, 10 μM 96 h
Procedure: Data are represented as mean±SEM. Two-tailed unpaired t-test was used where *, ** and *** represents p<0.05, p<0.01 and p<0.001 respectively.
The cDNA synthesis, qRT-PCR reaction and quantification were carried out as described previously (Zhang et al., 2017).

[10] = tested on: insulin-AKT2-AS160 signaling (pAKT2, pAS160); assay: Insulin-stimulated AKT2-AS160 signaling western blot in 3T3-F442A cells
[11] = tested on: insulin secretion; assay: Glucose-stimulated insulin secretion in plasma of HFD mice; type: in vivo; details: 21 weeks HFD
Procedure: as §2

[12] = HFD 16 weeks then intermittent dosing over 5 weeks
[13] = lean, non-T2D, glucose-tolerant mice, vs vehicle

Structure (SMILES): CCCCC1(C2CCCC2)Cc2cc(OCCCCCC(=O)O)c(Cl)c(Cl)c2C1=O (centres unmarked) [SN-406, 6-((2-butyl-6,7-dichloro-2-cyclopentyl-1-oxo-2,3-dihydro-1H-inden-5-yl)oxy)hexanoic acid]
- Prevention of palmitate/glucose-induced SWELL1 protein reduction [1]: entirely prevented
- ICl,SWELL inhibition in R103E mutant vs WT [2]: reduced
- IC50 [3]: > 10 µM

Structure (SMILES): CCCCC1(C2CCCC2)Cc2cc(OCCCC(=O)O)c(Cl)c(Cl)c2C1=O (centres unmarked) [SN-401, 4-((2-butyl-6,7-dichloro-2-cyclopentyl-1-oxo-2,3-dihydro-1H-inden-5-yl)oxy)butanoic acid]
- Prevention of palmitate/glucose-induced SWELL1 protein reduction [1]: entirely prevented
- Effect on hERG [4]: no effect
- Absolute and body mass-normalized liver mass [5, 12]: reduced
- Hepatic triglyceride concentration [5, 12]: lower
- Hepatic steatosis (histologic evaluation) ([5]; HFD mice): significantly reduced
- Hepatocyte damage (histologic evaluation) ([5]; HFD mice): significantly reduced
- Improvement of NAFLD activity score (NAS) ([5]; HFD mice): > 2 points
- SWELL1 expression in adipose tissue ([6]; HFD-fed T2D mice): 2.3 fold
- SWELL1 expression in adipose tissue ([6]; T2D KKAy mice, compared to non-T2D C57/B6 and KKAa): increases
- Hypoglycemia ([7]; control KKAa parental strain, 5 mg/kg x 4-10 days): does not cause hypoglycemia
- FG [7, 13]: similar
- GTT [7, 13]: similar
- ITT [7, 13]: similar
- Fasting blood glucose (FG) [8]: normalized
- Glucose tolerance (GTT) [8]: normalized
- Insulin-tolerance (ITT) [8]: markedly improved
- SWELL1, LRRC8b, LRRC8c, LRRC8d or LRRC8e mRNA expression [9]: not associated with increases
- Insulin-pAKT2 signaling ([10]; 3T3-F442A adipocytes, 1 μM 96 hours followed by washout, vs vehicle): robustly increases
- Effects on insulin-AKT2-AS160 signaling in SWELL1 KO cells ([10]; SWELL1 KO 3T3-F442A adipocytes): absent
- Insulin-stimulated levels of pAS160 ([10]; WT 3T3-F442A adipocytes, 10 μM 96 h): enhanced
- Insulin-stimulated levels of pAKT2 ([10]; WT 3T3-F442A, 10 μM 96 h): enhanced
- Glucose-stimulated insulin secretion (GSIS), serum insulin measurements [11]: significantly improved
- IC50 [3]: > 10 µM
